Data as given in patent US20230339970A1, “CASEIN KINASE 1 DELTA MODULATORS” (priority 2020, published 2023).

Assays:
human CSNK1D = molecular target: T1, human CSNK1D (Homo sapiens, UniProt P48730); experiment: Whole Cell nBRET CSNK1D Binding Assay; settings: living CHO cells stably expressing human CSNK1D tagged with nanoluciferase; NanoBret tracer 130 nM; 2 hours at 37 C
T1 construct: expressed in transfected cells

[1] = molecular target: T2, human recombinant GST cleaved CSNK1D (Homo sapiens, UniProt P48730); experiment: Purified Enzyme Assay (ADP-Glo CSNK1D Kinase Assay); type: biochemical; settings: 2 nM CSNK1D; peptide substrate 150 μM; ATP 20 μM; 45 minutes at room temperature
T2 construct: GST (cleaved yes); purchased University of Dundee clone DU 19064
In short: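 Percent activity derived from ADP-Glo quantification of ADP produced. Reactions: compound dose-response with human recombinant GST-cleaved CSNK1D, ATP and substrate peptide PLSRTL-pS-VASLPGL, incubated 45 min at room temperature.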

T1 sequence (P48730 whole entry): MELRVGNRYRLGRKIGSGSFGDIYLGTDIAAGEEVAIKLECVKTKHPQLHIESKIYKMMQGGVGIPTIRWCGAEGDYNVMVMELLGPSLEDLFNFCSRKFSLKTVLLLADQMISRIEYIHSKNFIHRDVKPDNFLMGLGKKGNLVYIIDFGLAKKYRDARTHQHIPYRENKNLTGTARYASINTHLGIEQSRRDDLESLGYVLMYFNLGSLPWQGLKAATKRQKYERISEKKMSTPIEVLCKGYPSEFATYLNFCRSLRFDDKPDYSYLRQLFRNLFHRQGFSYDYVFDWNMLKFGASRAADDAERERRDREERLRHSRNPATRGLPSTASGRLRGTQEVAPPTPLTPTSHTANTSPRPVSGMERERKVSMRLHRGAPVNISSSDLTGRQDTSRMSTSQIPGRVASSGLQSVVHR
T2 sequence (P48730 whole entry): as above

Structure (SMILES) | IC50 (human CSNK1D) | IC50 [1]
COCC1(F)CCc2c(-c3cc(C)nc4[nH]ccc34)c(-c3ccc(F)cn3)nn2C1 (single isomer, unassigned) [Example 298, (*S)-4-[6-Fluoro-2-(5-fluoro-2-pyridyl)-6-(methoxymethyl)-5,7-dihydro-4H-pyrazolo[1,5-a]pyridin-3-yl]-6-methyl-1H-pyrrolo[2,3-b]pyridine] | 12 nM | 2 nM
CC1(C)Cn2nc(-c3ccc(F)cn3)c(-c3ccn4ncc(Cl)c4c3)c2CO1 [Example 384, 3-(3-Chloropyrazolo[1,5-a]pyridin-5-yl)-2-(5-fluoropyridin-2-yl)-6,6-dimethyl-6,7-dihydro-4H-pyrazolo[5,1-c][1,4]oxazine] | 171 nM | 15 nM
Cn1ncc2nccc(-c3c(-c4ccc(F)cn4)nn4c3COC(C)(C)C4)c21 [Example 159, 2-(5-Fluoropyridin-2-yl)-6,6-dimethyl-3-(1-methyl-1H-pyrazolo[4,3-b]pyridin-7-yl)-6,7-dihydro-4H-pyrazolo[5,1-c][1,4]oxazine] | > 10000 nM | 1180 nM
CC1(C)Cc2c(-c3cc(C(F)F)nc4[nH]ncc34)c(-c3ccc(F)cn3)nn2C1 [Example 239, 6-(Difluoromethyl)-4-[2-(5-fluoro-2-pyridyl)-5,5-dimethyl-4,6-dihydropyrrolo[1,2-b]pyrazol-3-yl]-1H-pyrazolo[3,4-b]pyridine] | 115 nM | 4 nM
Cc1cc(-c2c(-c3ccc(F)cn3)nn3c2OCCC3)c2cn[nH]c2n1 [Example 187, 2-(5-Fluoropyridin-2-yl)-3-(6-methyl-1H-pyrazolo[3,4-b]pyridin-4-yl)-6,7-dihydro-5H-pyrazolo[5,1-b][1,3]oxazine] | 330 nM | 8 nM
Fc1ccc(-c2nn3c(c2-c2c(F)cnc4[nH]ncc24)COC2(C3)CC2(F)F)nc1 (single isomer, unassigned) [Example 436, (*S)-1′1l′-Difluoro-3-(5-fluoro-1H-pyrazolo[3,4-b]pyridin-4-yl)-2-(5-fluoro-2-pyridyl)spiro[4,7-dihydropyrazolo[5,1-c][1,4]oxazine-6,2′-cyclopropane]] | 3960 nM | 156 nM
CCn1ncc2cc(-c3c(-c4ccc(F)cn4)nn4c3CO[C@@H](C)C4)cnc21 [Example 371, (S)-3-(1-Ethyl-1H-pyrazolo[3,4-b]pyridin-5-yl)-2-(5-fluoropyridin-2-yl)-6-methyl-6,7-dihydro-4H-pyrazolo[5,1-c][1,4]oxazine] | 7800 nM | 404 nM
CC(=O)Nc1cc(-c2c(-c3ccc(F)cn3)nn3c2CC[C@@H]2C[C@@H]23)ccn1 (stereo in doubt) [Example 341, N-(4-((5a*R,6a*S)-2-(5-Fluoropyridin-2-yl)-5,5a,6,6a-tetrahydro-4H-cyclopropa[e]pyrazolo[1,5-a]pyridin-3-yl)pyridin-2-yl)acetamide] | 24 nM | 2 nM
[2H]C([2H])([2H])C1(C([2H])([2H])[2H])Cn2nc(-c3ccc(F)cn3)c(-c3ccnc4[nH]nc(Cl)c34)c2CO1 [Example 400, 3-(3-Chloro-1H-pyrazolo[3,4-b]pyridin-4-yl)-2-(5-fluoropyridin-2-yl)-6,6-bis(methyl-d3)-6,7-dihydro-4H-pyrazolo[5,1-c][1,4]oxazine] | 30 nM | 4 nM
Cc1nc(-c2c(-c3ccc(F)cc3)nn3c2COC(C(F)(F)F)C3)c2cn[nH]c2n1 (single isomer, unassigned) [Example 376, (*R)-2-(4-Fluorophenyl)-3-(6-methyl-1H-pyrazolo[3,4-d]pyrimidin-4-yl)-6-(trifluoromethyl)-6,7-dihydro-4H-pyrazolo[5,1-c][1,4]oxazine] | 74 nM | 4 nM
[2H]C([2H])([2H])C1(C([2H])([2H])[2H])Cn2nc(-c3ccc(F)cn3)c(-c3c(F)cnc4[nH]nc(C)c34)c2CO1 [Example 404, 3-(5-Fluoro-3-methyl-1H-pyrazolo[3,4-b]pyridin-4-yl)-2-(5-fluoropyridin-2-yl)-6,6-bis(methyl-d3)-6,7-dihydro-4H-pyrazolo[5,1-c][1,4]oxazine] | 137 nM | 9 nM
C[C@]1(C(F)(F)F)Cn2nc(-c3ccc(F)cc3)c(-c3ccn4nccc4c3)c2CO1 (single isomer, unassigned) [Example 412, (*R)-2-(4-Fluorophenyl)-6-methyl-3-(pyrazolo[1,5-a]pyridin-5-yl)-6-(trifluoromethyl)-6,7-dihydro-4H-pyrazolo[5,1-c][1,4]oxazine] | 694 nM | 149 nM
CC1(C)COc2c(-c3ccnc4cn[nH]c34)c(-c3ccc(F)cn3)nn2C1 [Example 454, 2-(5-Fluoro-2-pyridyl)-6,6-dimethyl-3-(1H-pyrazolo[4,3-b]pyridin-7-yl)-5,7-dihydropyrazolo[5,1-b][1,3]oxazine] | 127 nM | 6 nM
[2H]C([2H])([2H])[C@@]1(C(F)(F)F)Cn2nc(-c3ccc(F)cn3)c(-c3cc(C)nc4[nH]nc(C)c34)c2CO1 (single isomer, unassigned) [Example 429, (*S)-3-(3,6-Dimethyl-1H-pyrazolo[3,4-b]pyridin-4-yl)-2-(5-fluoropyridin-2-yl)-6-(methyl-d3)-6-(trifluoromethyl)-6,7-dihydro-4H-pyrazolo[5,1-c][1,4]oxazine] | 2230 nM | 133 nM
C[C@@H]1COCc2c(-c3ccnc4[nH]ncc34)c(-c3ccc(F)cc3)nn21 (single isomer, unassigned) [Example 92, (*R)-2-(4-Fluorophenyl)-7-methyl-3-(1H-pyrazolo[3,4-b]pyridin-4-yl)-6,7-dihydro-4H-pyrazolo[5,1-c][1,4]oxazine] | 100 nM | 4 nM
Cc1cc(-c2c(-c3ccc(F)cn3)nn3c2OCCCC3)c2cn[nH]c2n1 [Example 219, 2-(5-Fluoro-2-pyridyl)-3-(6-methyl-1H-pyrazolo[3,4-b]pyridin-4-yl)-5,6,7,8-tetrahydropyrazolo[5,1-b][1,3]oxazepane] | 279 nM | 38 nM
COCC[C@@]1(C)CCc2c(-c3ccnc4[nH]ncc34)c(-c3ccc(F)cn3)nn2C1 (single isomer, unassigned) [Example 319, (*R)-4-[2-(5-Fluoro-2-pyridyl)-6-(2-methoxyethyl)-6-methyl-5,7-dihydro-4H-pyrazolo[1,5-a]pyridin-3-yl]-1H-pyrazolo[3,4-b]pyridine] | 81 nM | 5 nM
CC(=O)Nc1cc(-c2c(-c3ccc(F)cc3)nn3c2C[C@H](F)C3)ccn1 [Example 229, N-[4-[(5S)-5-Fluoro-2-(4-fluorophenyl)-5,6-dihydro-4H-pyrrolo[1,2-b]pyrazol-3-yl]-2-pyridyl]acetamide] | 2 nM | 1 nM
Cc1cc(-c2c(-c3ccc(F)cn3)nn3c2C[C@@H]2C[C@@H]23)c2cn[nH]c2n1 [Example 28, (4aS,5aS)-2-(5-Fluoropyridin-2-yl)-3-(6-methyl-1H-pyrazolo[3,4-b]pyridin-4-yl)-4,4a,5,5a-tetrahydrocyclopropa[4,5]pyrrolo[1,2-b]pyrazole] | 19 nM | 2 nM
Fc1ccc(-c2nn3c(c2-c2ccnc4[nH]ncc24)C[C@H]2C[C@H]23)cc1 [Example 267, (4aR,5aR)-2-(4-Fluorophenyl)-3-(1H-pyrazolo[3,4-b]pyridin-4-yl)-4,4a,5,5a-tetrahydrocyclopropa[4,5]pyrrolo[1,2-b]pyrazole] | 131 nM | 6 nM
Cc1nc(-c2c(-c3ccc(F)cc3)nn3c2OCC(F)(F)C3)c2cn[nH]c2n1 [Example 469, 6,6-Difluoro-2-(4-fluorophenyl)-3-(6-methyl-1H-pyrazolo[3,4-d]pyrimidin-4-yl)-5,7-dihydropyrazolo[5,1-b][1,3]oxazine] | 385 nM | 28 nM
C[C@@]1(CF)CCc2c(-c3ccnc4[nH]ncc34)c(-c3ccc(F)cn3)nn2C1 (single isomer, unassigned) [Example 52, (*R)-4-[6-(Fluoromethyl)-2-(5-fluoro-2-pyridyl)-6-methyl-5,7-dihydro-4H-pyrazolo[1,5-a]pyridin-3-yl]-1H-pyrazolo[3,4-b]pyridine] | 11 nM | 1 nM
Fc1ccc(-c2nn3c(c2-c2ccnc4[nH]ncc24)CCC(F)(COC(F)(F)F)C3)nc1 (single isomer, unassigned) [Example 316, (*S)-4-[6-Fluoro-2-(5-fluoro-2-pyridyl)-6-(rifluoromethoxymethyl)-5,7-dihydro-4H-pyrazolo[1,5-a]pyridin-3-yl]-1H-pyrazolo[3,4-b]pyridine] | 54 nM | 6 nM
Fc1ccc(-c2nn3c(c2-c2ccnc4[nH]ccc24)CCC3)nc1 [Example 6, 4-(2-(5-Fluoropyridin-2-yl)-5,6-dihydro-4H-pyrrolo[1,2-b]pyrazol-3-yl)-1H-pyrrolo[2,3-b]pyridine] | 35 nM | 1 nM
Cc1cc(-c2c(-c3ccc(F)cc3)nn3c2COCC3)c2cn[nH]c2n1 [Example 71, 2-(4-Fluorophenyl)-3-(6-methyl-1H-pyrazolo[3,4-b]pyridin-4-yl)-6,7-dihydro-4H-pyrazolo[5,1-c][1,4]oxazine] | 21 nM | 2 nM
Fc1ccc(-c2nn3c(c2-c2ccnc4[nH]ncc24)OCC2(C3)CC2(F)F)nc1 (single isomer, unassigned) [Example 479, (*R)-2,2-Difluoro-2′-(5-fluoropyridin-2-yl)-3′-1H-pyrazolo[3,4-b]pyridin-4-yl)-5′H,7′H-spiro[cyclopropane-1,6′-pyrazolo[5,1-b][1,3]oxazine]] | 1320 nM | 32 nM
